Key:
[1] = Plasma concentration and PK in patients (Phase 1a); assay type: in vivo, human; conditions: IV, DL1 and DL2, plasma
Text: (§1) Patients who provide informed consent and meet the eligibility criteria for the study will be enrolled and treated with Compound A administered intravenously (IV) on Day 1 of a 21-day schedule (Schedule 1). An alternative schedule of Compound A administered IV on Day 1 and Day 2 of a 21-day schedule (Schedule 2) may also be evaluated based on emerging pharmacokinetic, pharmacodynamic, and safety data observed in Schedule 1. If Schedule 2 is investigated, the first dose level will represent a split dose of the highest dose previously determined to be tolerable in Schedule 1 with the total dose administered in Schedule 2 being equivalent to the total dose administered in Schedule 1. Subsequent dose levels for Schedule 2 will follow the same dose escalation scheme as described for Schedule 1. If the sponsor and investigators determine that, based on the observed safety, PK, preliminary efficacy, and/or the PD profile, Schedule 2 may not be beneficial to patients, then the study will proceed immediately to Phase 1b after the Schedule 1 MTD/RP2D is determined and Schedule 2 may not be evaluated. • Schedule 1: Dose D1 on a 21-day schedule • Schedule 2: Dose D1, D2 on a 21-day schedule

Ikaros [2] = molecular target: T1, Ikaros (Homo sapiens, UniProt Q13422); assay: Ikaros degradation in tumor by targeted MS (Phase 1a); assay type: in vivo; conditions: patients, IV, DL1, targeted MS
T1 construct: from tissue; host or cells: tumor tissue of R/R B-cell NHL patients
Protocol: (§2) In some embodiments, the present disclosure provides a method of administering Compound A to a patient in need thereof, comprising administering to said patient a therapeutically effective amount of Compound A or a pharmaceutically acceptable salt thereof (e.g., in a liquid formulation or a unit dose form as described herein), wherein greater than 40%, 50%, 60%, 70%, 80%, or 90% of Ikaros degradation in blood or tumor is achieved (e.g., by measuring, at 48 hours post-administration, Ikaros levels using mass spectrometry or lymphocytes and monocytes using flow cytometry).
as §1, with “If the sponsor and investigators determine that, based on the observed safety, PK, preliminary efficacy, and/or the PD profile, Schedule 2 may not be beneficial to patients, then the study will proceed immediately to Phase 1b after the Schedule 1 MTD/RP2D is determined and Schedule 2 may not be evaluated. • Schedule 1: Dose D1 on a 21-day schedule • Schedule 2: Dose D1, D2 on a 21-day schedule” left out

IRAK4 [3] = molecular target: T2, IRAK4 (Homo sapiens, UniProt Q9NWZ3); assay: IRAK4 degradation in tumor by targeted MS (Phase 1a); assay type: in vivo; conditions: patients, IV, DL1, targeted MS
T2 construct: from tissue; host or cells: tumor tissue of R/R B-cell NHL patients
T2 sequence (Q9NWZ3 1-460): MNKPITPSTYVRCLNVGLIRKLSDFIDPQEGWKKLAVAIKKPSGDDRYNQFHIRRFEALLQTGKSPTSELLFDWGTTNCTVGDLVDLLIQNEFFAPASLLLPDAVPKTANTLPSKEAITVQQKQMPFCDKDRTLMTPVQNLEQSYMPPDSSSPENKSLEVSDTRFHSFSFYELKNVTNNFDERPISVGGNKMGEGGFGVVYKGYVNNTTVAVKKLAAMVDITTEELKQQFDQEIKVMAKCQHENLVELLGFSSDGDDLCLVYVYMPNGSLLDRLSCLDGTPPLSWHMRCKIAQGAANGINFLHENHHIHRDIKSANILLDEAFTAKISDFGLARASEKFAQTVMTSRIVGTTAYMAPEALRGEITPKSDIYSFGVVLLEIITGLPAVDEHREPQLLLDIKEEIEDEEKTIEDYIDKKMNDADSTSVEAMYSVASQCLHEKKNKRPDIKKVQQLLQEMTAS
Protocol: as §2, with “great” for “greater”, “than 30%,” for “than”, “IRAK4” for “Ikaros”
as §1, with “If the sponsor and investigators determine that, based on the observed safety, PK, preliminary efficacy, and/or the PD profile, Schedule 2 may not be beneficial to patients, then the study will proceed immediately to Phase 1b after the Schedule 1 MTD/RP2D is determined and Schedule 2 may not be evaluated. • Schedule 1: Dose D1 on a 21-day schedule • Schedule 2: Dose D1, D2 on a 21-day schedule” left out

Ikaros [4] = molecular target: T1, Ikaros; assay: Ikaros degradation in blood by PBMC FLOW (Phase 1a); assay type: in vivo; conditions: patients with R/R B-cell NHL, IV, DL1 and DL2, PBMC FLOW
Protocol: as §2
as §1, with “If the sponsor and investigators determine that, based on the observed safety, PK, preliminary efficacy, and/or the PD profile, Schedule 2 may not be beneficial to patients, then the study will proceed immediately to Phase 1b after the Schedule 1 MTD/RP2D is determined and Schedule 2 may not be evaluated. • Schedule 1: Dose D1 on a 21-day schedule • Schedule 2: Dose D1, D2 on a 21-day schedule” left out

[5] = tested on: IRAK4, Ikaros, and Aiolos; assay: Duration of target degradation in patients (Phase 1a); assay type: in vivo, human; conditions: once every three-week dosing
Text: as §1

Aiolos [6] = molecular target: T3, Aiolos (Homo sapiens, UniProt Q9UKT9); assay: Aiolos degradation in tumor by targeted MS (Phase 1a); assay type: in vivo; conditions: patients, IV, DL1, targeted MS
T3 construct: from tissue; host or cells: tumor tissue of R/R B-cell NHL patients
Protocol: as §2, with “than” for “than 40%, 50%,”, “Aiolos” for “Ikaros”
as §1, with “If the sponsor and investigators determine that, based on the observed safety, PK, preliminary efficacy, and/or the PD profile, Schedule 2 may not be beneficial to patients, then the study will proceed immediately to Phase 1b after the Schedule 1 MTD/RP2D is determined and Schedule 2 may not be evaluated. • Schedule 1: Dose D1 on a 21-day schedule • Schedule 2: Dose D1, D2 on a 21-day schedule” left out

IRAK4 [7] = molecular target: T2, IRAK4; assay: IRAK4 degradation in blood by PBMC FLOW (Phase 1a); assay type: in vivo; conditions: patients with R/R B-cell NHL, IV, DL1 and DL2, PBMC FLOW
Protocol: as §2, with “great” for “greater”, “than 30%,” for “than”, “IRAK4” for “Ikaros”
as §1, with “If the sponsor and investigators determine that, based on the observed safety, PK, preliminary efficacy, and/or the PD profile, Schedule 2 may not be beneficial to patients, then the study will proceed immediately to Phase 1b after the Schedule 1 MTD/RP2D is determined and Schedule 2 may not be evaluated. • Schedule 1: Dose D1 on a 21-day schedule • Schedule 2: Dose D1, D2 on a 21-day schedule” left out

Aiolos [8] = molecular target: T3, Aiolos; assay: Aiolos degradation in blood by PBMC FLOW (Phase 1a); assay type: in vivo; conditions: patients with R/R B-cell NHL, IV, DL1 and DL2, PBMC FLOW
Protocol: as §2, with “than” for “than 40%, 50%,”, “Aiolos” for “Ikaros”
as §1, with “If the sponsor and investigators determine that, based on the observed safety, PK, preliminary efficacy, and/or the PD profile, Schedule 2 may not be beneficial to patients, then the study will proceed immediately to Phase 1b after the Schedule 1 MTD/RP2D is determined and Schedule 2 may not be evaluated. • Schedule 1: Dose D1 on a 21-day schedule • Schedule 2: Dose D1, D2 on a 21-day schedule” left out

T1 sequence (Q13422 whole entry): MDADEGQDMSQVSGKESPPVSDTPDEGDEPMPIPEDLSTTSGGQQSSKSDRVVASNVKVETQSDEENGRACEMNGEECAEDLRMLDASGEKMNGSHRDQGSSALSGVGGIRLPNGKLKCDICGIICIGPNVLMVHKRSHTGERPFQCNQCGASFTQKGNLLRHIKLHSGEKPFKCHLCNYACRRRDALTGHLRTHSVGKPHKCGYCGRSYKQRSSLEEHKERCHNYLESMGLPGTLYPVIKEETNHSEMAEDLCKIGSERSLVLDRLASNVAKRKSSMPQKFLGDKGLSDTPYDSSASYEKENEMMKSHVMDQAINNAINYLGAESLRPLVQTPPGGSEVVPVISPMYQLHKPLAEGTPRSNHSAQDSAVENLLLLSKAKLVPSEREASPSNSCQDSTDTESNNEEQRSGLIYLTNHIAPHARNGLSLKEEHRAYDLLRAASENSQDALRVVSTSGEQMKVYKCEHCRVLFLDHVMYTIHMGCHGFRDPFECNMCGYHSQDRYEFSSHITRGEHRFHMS
T3 sequence (Q9UKT9 whole entry): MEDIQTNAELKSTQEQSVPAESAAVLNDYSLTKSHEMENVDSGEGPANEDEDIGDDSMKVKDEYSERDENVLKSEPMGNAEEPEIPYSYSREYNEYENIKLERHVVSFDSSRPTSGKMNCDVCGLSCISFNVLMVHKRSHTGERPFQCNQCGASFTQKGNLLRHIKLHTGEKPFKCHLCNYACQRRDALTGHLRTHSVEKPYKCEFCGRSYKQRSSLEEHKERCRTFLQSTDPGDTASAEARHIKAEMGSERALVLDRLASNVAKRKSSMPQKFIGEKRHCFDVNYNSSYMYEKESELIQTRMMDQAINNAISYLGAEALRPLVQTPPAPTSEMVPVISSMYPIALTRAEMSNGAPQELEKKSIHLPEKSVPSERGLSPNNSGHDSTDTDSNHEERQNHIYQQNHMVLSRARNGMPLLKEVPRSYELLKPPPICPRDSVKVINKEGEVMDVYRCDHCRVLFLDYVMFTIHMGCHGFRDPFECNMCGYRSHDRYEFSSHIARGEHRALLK

CC(C)(O)c1cc2nc([C@H]3CC[C@H](CN4CC5(CC(CCNc6cccc7c6C(=O)N(C6CCC(=O)NC6=O)C7=O)C5)C4)CC3)sc2cc1NC(=O)c1cccc(C(F)(F)F)n1 (some centres unmarked) [Compound A]
Exposure (plasma concentration and PK) [1]: dose-proportional increase in exposure | Ikaros KD in tumor (Ikaros [2]): 40-66% | IRAK4 KD in tumor (IRAK4 [3]): 27% | KD of Ikaros in PBMC (Ikaros [4]): ≤ 95% | Duration of target degradation [5]: At least 72 h | Aiolos KD in tumor (Aiolos [6]): 40-66% | IRAK4 degradation in PBMC (IRAK4 [7]): Up to 40% | KD of Aiolos in PBMC (Aiolos [8]): ≤ 95%
